Laboratory results: PMC6959985 (Analytical chemistry, 2019)
Where no end group is shown, it is not given here.

T1: KLHDC2 (Homo sapiens, UniProt Q9Y2U9)
T1 sequence (Q9Y2U9 1-406): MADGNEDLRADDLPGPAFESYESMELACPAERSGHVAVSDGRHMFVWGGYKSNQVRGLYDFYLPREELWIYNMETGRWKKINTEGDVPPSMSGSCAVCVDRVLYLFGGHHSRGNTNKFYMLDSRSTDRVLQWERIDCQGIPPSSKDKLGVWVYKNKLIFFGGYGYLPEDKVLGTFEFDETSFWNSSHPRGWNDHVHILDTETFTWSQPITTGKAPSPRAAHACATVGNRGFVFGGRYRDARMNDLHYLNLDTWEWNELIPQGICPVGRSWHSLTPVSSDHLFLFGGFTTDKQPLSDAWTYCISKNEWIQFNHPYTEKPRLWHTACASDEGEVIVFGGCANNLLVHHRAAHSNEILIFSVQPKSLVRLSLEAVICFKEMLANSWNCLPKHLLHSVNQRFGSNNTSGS

T2: KLHDC2 (as used in the AlphaScreen competition assay) (human, UniProt Q9Y2U9 1-406)
T2 sequence (looked up): T1 sequence (Q9Y2U9 1-406)


Experiments:
KLHDC2 [1] = molecular target: T1, KLHDC2
KLHDC2 [2] = molecular target: T1, KLHDC2; experiment: Luminescence-based competition assay; settings: discussion of binding of both peptides; HLRGSPPPMAGG characterized in ref [19]
KLHDC2 [3] = molecular target: T1, KLHDC2; settings: recently characterized selenoprotein fragment, comparison value; ref [19]; cited from earlier work
[4] = molecular target: T2, KLHDC2 (as used in the AlphaScreen …); experiment: AlphaScreen or HTRF

Row | Molecule | Identification as interacting peptide by native top-down MS (KLHDC2 [1]) | further results
1 | ASDEGEVIVFGG [ASDEGEVIVFGG] | identified using native top-down MS | 
2 | EKGGGSGGG | identified using native top-down MS | 
3 | GGGSGGG | identified using native top-down MS | 
4 | HLRGSPPPMAGG |  | Binding to KLHDC2 (KLHDC2 [2]): extremely tight binding; IC50 (KLHDC2 [3]): 3.4 nM
5 | ASDEGEVIVFGG [synthesized peptide F (ASDEGEVIVFGG)] |  | IC50 [4]: 5.3 nM
